Here are results for three compounds from US20180000136A1, “BIOLOGICAL INORGANIC COMPOUND COMPLEX HAVING REDUCED OXYGEN AND HIGH REDUCING ABILITY” (priority 2011, published 2018).

Data set [1] in a line: Degradation of H2O2 in a cell-free system (Amplex red). It is filed as biochemical. Particulars: 20 μM H2O2, 30 min at 37° C. On the procedure: Then, Amplex red (Invitrogen) is added and incubated for 30 min in a dark room. The absorbance at 560 nm is measured by a microplate reader (Molecular Devices, Sunnyvale, Calif.).
For data set [2] the following is noted: medication of Graves' disease; Non-patent documents 1 and 2; cited from earlier work.
Data set [3] concerns the target LPO-H2O2 reaction (Bos taurus, UniProt P80025). The experiment in a line: Compound II formation from the peroxidase-H2O2 reaction (OD 430 nm). Type of data set: biochemical. Particulars: KI at 1 μM. The source says: Compound II, however, is relatively stable and can be measured at OD of 430 nm. The compound II level is well maintained after mixing LPO and H2O2 (Referring to FIG. 28). […] Since the compound II is derived from the compound I, the inhibition of compound I is also understandable.

`Cn1cc[nH]c1=S` [MMI, methimazole]: in data set [1], the “degradation of H2O2” value is recorded as “can degrade H2O2 although higher concentration of MMI is required”. The side-effects entry in data set [2] is “an allergic reaction, an increase of a variety of enzyme levels in liver, a joint pain and an agranulocytosis in case of a severe condition”.

For the compound `CCCc1cc(=O)[nH]c(=S)[nH]1` [PTU, propylthiouracil], the side-effects entry in data set [2] is “severe liver damage”.

Take `[I-].[K+]` [KI]: the “compound II formation” value in data set [3] was “partially inhibits”.
